Biological target: T1, Ba/F3 cell EGFR Exon20 ins NPH (Homo sapiens, UniProt P00533, INS773NPH)
T1 construct: expressed in transfected cells; host or cells: Ba/F3
Assay: Ba/F3 cell proliferation suppression, EGFR Exon20 ins NPH
Type: cell-based
Conditions: GI50 class; Ba/F3 cell line with NPH inserted at Exon20 of EGFR; 72 hours
Method in brief: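 72 h compound exposure, 0.3 nM–50 um (12 points, 3:1 dilution in DMSO); viability by CellTiter-Glo luminescence. Ba/F3 medium: RPMI-1640, 10% FBS, 5 ng/ml IL-3, 1 ug/ml puromycin for transduced cells. GI50 vs control, n=3.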

Row | SMILES | Ba/F3 (NPH) Activity
1 | C=CC(=O)Nc1cc(Nc2cc(N3OCC[C@@H]3c3cccc(Cl)c3)ncn2)c(OC)cc1N1CCC(N2CC[C@H](N(C)C)C2)CC1 [compound 508, N-(5-((6-((R)-3-(3-chlorophenyl)isoxazolidine-2-yl)pyrimidine-4-yl)amino)-2-(4-((S)-3-(dimethylamino)pyrolidine-1-yl)piperidine-1-yl)-4-methoxyphenyl) acrylamide] | A (GI50 < 50 nM)
2 | C=CC(=O)Nc1cc(Nc2cc(N3OCC[C@@H]3c3cccc(F)c3)ncn2)c(OC)cc1N1CCC(N2CCN(CC)CC2)CC1 [Example 248, N-(2-(4-(4-ethylpiperazine-1-yl)piperidine-1-yl)-5-((6-((R)-3-(3-fluorophenyl)isoxazolidine-2-yl)pyrimidine-4-yl)amino)-4-methoxyphenyl) acrylamide] | A (GI50 < 50 nM)
3 | C=CC(=O)Nc1cc(Nc2cc(N3OCC[C@@H]3c3cc(F)cc(F)c3)ncn2)c(OC)cc1N1CC(N2CCN(C3CC3)CC2)C1 [compound 588, N-(2-(3-(4-cyclopropylpiperazine-1-yl)azetidine-1-yl)-5-((6-((R)-3-(3,5-difluorophenyl)isoxazolidine-2-yl)pyrimidine-4-yl)amino)-4-methoxyphenyl) acrylamide] | B (50 nM ≤ GI50 < 500 nM)
4 | C=CC(=O)Nc1cc(Nc2cc(N3OCC[C@@H]3c3cc(F)ccc3F)ncn2)c(OC)cc1N1CCC(N2C[C@H](C)N(C3CC3)C[C@@H]2C)CC1 [Example 171, N-(2-(4-((2S,5S)-4-cyclopropyl-2,5-dimethylpiperazine-1-yl)piperidine-1-yl)-5-((6-((R)-3-(2,5-difluorophenyl)isoxazolidine-2-yl)pyrimidine-4-yl)amino)-4-methoxyphenyl) acrylamide] | A (GI50 < 50 nM)
5 | C=CC(=O)Nc1cc(Nc2cc(N3OCC[C@@H]3c3cccc(Cl)c3Cl)ncn2)c(OC)cc1N1CCN(C2CC2)[C@H](C)C1 [compound 564, N-(2-((R)-4-cyclopropyl-3-methylpiperazine-1-yl)-5-((6-((R)-3-(2,3-dichlorophenyl)isoxazolidine-2-yl)pyrimidine-4-yl)amino)-4-methoxyphenyl) acrylamide] | A (GI50 < 50 nM)
6 | C=CC(=O)Nc1cc(Nc2cc(N3OCC[C@@H]3c3ccc(F)cc3F)ncn2)c(OC)cc1N1CCN(C2CCN(C)CC2)CC1 [compound 345, N-(5-((6-((R)-3-(2,4-difluorophenyl)isoxazolidine-2-yl)pyrimidine-4-yl)amino)-4-methoxy-2-(4-(1-methylpiperidine-4-yl)piperazine-1-yl)phenyl)acrylamide] | A (GI50 < 50 nM)
7 | C=CC(=O)Nc1cc(Nc2cc(N3OCC[C@@H]3c3ccc(F)c(F)c3F)ncn2)c(OC)cc1N1CCN(CC)CC1 [compound 570, N-(2-(4-ethylpiperazine-1-yl)-4-methoxy-5-((6-((R)-3-(2,3,4-trifluorophenyl)isoxazolidine-2-yl)pyrimidine-4-yl)amino)phenyl) acrylamide] | A (GI50 < 50 nM)
8 | C=CC(=O)Nc1cc(Nc2cc(N3OCC[C@@H]3c3cccc(Cl)c3)ncn2)c(OC)cc1N1CCC(N2CCN(C3COC3)CC2)CC1 [Example 199, N-(5-((6-((R)-3-(3-chlorophenyl)isoxazolidine-2-yl)pyrimidine-4-yl)amino)-4-methoxy-2-(4-(4-(oxetane-3-yl)piperazine-1-yl)piperidine-1-yl)phenyl)acrylamide] | A (GI50 < 50 nM)
9 | C=CC(=O)Nc1cc(Nc2cc(N3OCC[C@@H]3c3ccc(Cl)cc3F)ncn2)c(OC)cc1N1CCC(N2CC[C@@H](N(C)C)C2)CC1 [compound 404, N-(5-((6-((R)-3-(4-chloro-2-fluorophenyl)isoxazolidine-2-yl)pyrimidine-4-yl)amino)-2-(4-((R)-3-(dimethylamino)pyrolidine-1-yl)piperidine-1-yl)-4-methoxyphenyl) acrylamide] | B (50 nM ≤ GI50 < 500 nM)
10 | C=CC(=O)Nc1cc(Nc2cc(N3OCC[C@@H]3c3cccc(Cl)c3F)ncn2)c(OC)cc1N1CCC(N2CCCN(C3CC3)CC2)CC1 [compound 358, N-(5-((6-((R)-3-(3-chloro-2-fluorophenyl)isoxazolidine-2-yl)pyrimidine-4-yl)amino)-2-(4-(4-cyclopropyl-1,4-diazepane-1-yl)piperidine-1-yl)-4-methoxyphenyl) acrylamide] | A (GI50 < 50 nM)
11 | C=CC(=O)Nc1cc(Nc2cc(N3OCC[C@@H]3c3ccc(F)c(F)c3)ncn2)c(OC)cc1N1CCC(N2CCC(N(C)C)CC2)CC1 [compound 546, N-(5-((6-((R)-3-(3,4-difluorophenyl)isoxazolidine-2-yl)pyrimidine-4-yl)amino)-2-(4-(dimethylamino)-[1,4'-bipiperidine]-1'-yl)-4-methoxyphenyl) acrylamide] | A (GI50 < 50 nM)

Continued, values first:

Row | Ba/F3 (NPH) Activity | SMILES
12 | B (50 nM ≤ GI50 < 500 nM) | C=CC(=O)Nc1cc(Nc2cc(N3OCC[C@@H]3Cc3cccc(N(C)C)c3)ncn2)c(OC)cc1N1CCC(N2CCN(C3CC3)[C@@H](C)C2)CC1 [compound 1045, N-(2-(4-((S)-4-cyclopropyl-3-methylpiperazine-1-yl)piperidine-1-yl)-5-((6-((S)-3-(3-(dimethylamino)benzyl)isoxazolidine-2-yl)pyrimidine-4-yl)amino)-4-methoxyphenyl) acrylamide]
13 | A (GI50 < 50 nM) | C=CC(=O)Nc1cc(Nc2cc(N3OCC[C@@H]3c3cc(F)cc(F)c3)ncn2)c(OC)cc1N1CC[C@@H](CN(C)C)C1 [compound 625, N-(5-((6-((R)-3-(3,5-difluorophenyl)isoxazolidine-2-yl)pyrimidine-4-yl)amino)-2-((S)-3-((dimethylamino)methyl)pyrolidine-1-yl)-4-methoxyphenyl) acrylamide]
14 | C (500 nM ≤ GI50 < 5000 nM) | C=CC(=O)Nc1cc(Nc2cc(N3OCC[C@@H]3c3ccc(F)c(F)c3F)ncn2)c(OC)cc1N1CC[C@@H](N2CCOCC2)C1 [compound 623, N-(4-methoxy-2-((R)-3-morpholinopyrolidine-1-yl)-5-((6-((R)-3-(2,3,4-trifluorophenyl)isoxazolidine-2-yl)pyrimidine-4-yl)amino)phenyl)acrylamide]
15 | A (GI50 < 50 nM) | C=CC(=O)Nc1cc(Nc2cc(N3OCC[C@@H]3c3ccc(Cl)cc3)ncn2)c(OC)cc1N1CCC(N2C[C@@H]3C[C@H]2CO3)CC1 [compound 866, N-(2-(4-((1S,4S)-2-oxa-5-azabicyclo [2.2.1]heptane-5-yl)piperidine-1-yl)-5-((6-((R)-3-(4-chlorophenyl)isoxazolidine-2-yl)pyrimidine-4-yl)amino)-4-methoxyphenyl) acrylamide]
16 | A (GI50 < 50 nM) | C=CC(=O)Nc1cc(Nc2cc(N3OCC[C@@H]3c3cc(F)cc(Cl)c3)ncn2)c(OC)cc1N1CCC(N(C)C)CC1 [compound 627, N-(5-((6-((R)-3-(3-chloro-5-fluorophenyl)isoxazolidine-2-yl)pyrimidine-4-yl)amino)-2-(4-(dimethylamino)piperidine-1-yl)-4-methoxyphenyl) acrylamide]
17 | A (GI50 < 50 nM) | C=CC(=O)Nc1cc(Nc2cc(N3OCC[C@@H]3Cc3ccccn3)ncn2)c(OC)cc1N1CCC(N2CCN(C3CC3)CC2)CC1 [compound 1059, N-(2-(4-(4-cyclopropylpiperazine-1-yl)piperidine-1-yl)-4-methoxy-5-((6-((S)-3-(pyridine-2-ylmethyl)isoxazolidine-2-yl)pyrimidine-4-yl)amino)phenyl)acrylamide]

— patent US12157730B2, “Heteroaryl derivative, method for producing same, and pharmaceutical composition comprising same as effective component” (VORONOI INC., priority 2019, dated 2024)
